For test [1], the system named is Jurkat/NFATLuc.3C7 cells + HEK293 (BCMA negative) cells. Nature of the test: Jurkat/NFATLuc reporter bioassay with HEK293 cells. It counts as cell-based. The note with it: highest RLU / lowest RLU. The protocol:
Activity of the anti-BCMA×anti-CD3 bispecific antibodies were assessed in a Jurkat/NFATLuc reporter bioassay utilizing several cell lines with varying levels of BCMA surface expression. The Jurkat cells were engineered to express an NFAT-luciferase reporter (Jurkat/NFATLuc.3C7), and 50,000 Jurkat reporter cells were combined with 50,000 BCMA positive (Daudi, MM1-S, NCI-H929, OPM-2, RPMI-8226, MOLP-8, or Raji) or BCMA negative (HEK293) cells in Thermo Nunclon delta 96 well white microwell plates (Thermo Scientific, Cat #136102) in 50 ul of assay media (RPMI media with 10% FBS and 1% P/S/G). Three-fold serial dilutions of the BCMA×CD3 bispecific antibodies (mAb25441 D or mAb25442D), or a bivalent anti-BCMA antibody (mAb21581) were immediately added in 50 μL of assay buffer. The plates were gently agitated and incubated in a 37° C., 5% CO2 incubator for 4-6 hours. NFAT-Luciferase activity was determined using Promega One-Glo (Cat #E6130) and a Perkin Elmer Envision plate reader. RLU were plotted in GraphPad Prism using a four-parameter logistic equation over a 12-point response curve to calculate EC50 values. […] The signal to noise (S:N) is determined by taking the ratio of the highest RLU on the curve to the lowest.

The test system of test [2] is BCMA+ OPM-2-luciferase tumors. Description: OPM-2-luciferase intravenous xenogenic tumor model, BLI (Example 15). The note with it: for tumor burden (in words): 0.4 mg/kg on days 21, 25 and 28. It counts as in vivo, mouse. The protocol:
(§1) To determine the in vivo efficacy of anti-BCMA×anti-CD3 bispecific antibodies (Abs), a xenogenic tumor study was performed. On day 0, immunodeficient NOD.Cg-Prkdc^scidIl2rg^tm1Wji/SzJ (NSG) mice were intravenously administered 2×10^6 BCMA^+ OPM-2 human multiple myeloma tumor cells that were engineered to also express firefly luciferase (OPM-2-luciferase cells). On day 10, the mice were intraperitoneally injected with 4×10^6 human peripheral blood mononuclear cells (PBMC) from a normal, healthy donor. […] The mice were administered these Abs twice more on days 25 and 28, for a total of three doses. Tumor growth was assessed through day 61 by measuring tumor bioluminescence (BLI) in anesthetized animals. As a positive control, a group of mice (n=5) was given only OPM-2-luciferase cells, but not PBMC or antibody.
as §1, with “Implantation and measurement” for “To determine the in vivo efficacy”, “of” for “of anti-BCMA×anti-CD3 bispecific antibodies (Abs), a”, “tumors:” for “tumor study was performed.”
Measurement of xenogenic tumor growth: BLI imaging was used to measure tumor burden. Mice were injected IP with 150 mg/kg of the luciferase substrate D-luciferin suspended in PBS. Five minutes after this injection, BLI imaging of the mice was performed under isoflurane anesthesia using the Xenogen IVIS system. Image acquisition was carried out with the field of view at D, subject height of 1.5 cm, and medium binning level with automatic exposure time determined by the Living Image Software. BLI signals were extracted using Living Image software: regions of interest were drawn around each tumor mass and photon intensities were recorded as p/s/cm2/sr.

In test [3] the target is T1, surface BCMA on MM cell lines (Homo sapiens, UniProt Q02223).
T1 construct: human cell lines which express endogenous BCMA (e.g., NCI-H929, MOLP-8 or OMP-2); endogenous in cells; host or cells: multiple myeloma cell lines H929, Molp8, U266, MM1.S
T1 sequence (Q02223 1-184): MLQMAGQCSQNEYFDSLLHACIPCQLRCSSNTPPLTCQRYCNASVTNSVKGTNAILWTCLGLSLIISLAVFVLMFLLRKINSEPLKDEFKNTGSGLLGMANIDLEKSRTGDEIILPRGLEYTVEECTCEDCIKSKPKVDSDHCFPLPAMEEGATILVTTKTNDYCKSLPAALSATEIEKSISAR
Description: FACS surface BCMA after overnight incubation, MM cell lines overall. It counts as cell-based. The note with it: 66.7 or 667 nM. On the procedure:
Flow cytometric analysis was utilized to determine the impact of overnight incubation of multiple myeloma cell lines with anti-BCMA antibodies on the level of surface BCMA. […] After 18 hours, wells were washed with cold FACS wash (PBS+1% filtered FBS) and resuspended in 667 nM of the same anti-BCMA antibody in cold stain buffer (Miltenyi 130-091-221) for 30 minutes on ice. After incubation, the cells were washed twice with cold FACS wash (PBS+1% filtered FBS) and bound antibody was detected by incubating with the appropriate anti-human secondary antibody (anti-hIgG or anti-HIS) on ice for an additional 30-45 minutes. After incubation, cells were washed, re-suspended in 200 μL cold PBS containing 1% filtered FBS and analyzed by flow cytometry on a BD FACS Canto II. Fold increase in staining was calculated by dividing the MFI of stained cells previously incubated overnight in BCMA abs or DAPT by the MFI of stained cells that were incubated overnight in media only.

Turning to “REGN5458: anti-BCMA×anti-CD3 bispecific antibody: BCMA HCVR of mAb21581 (SEQ 66), CD3 HCVR of mAb7221G (SEQ 90), common LCVR SEQ 82”, the “S:N” value in test [1] came out at 1. For the same substance, the “tumor burden (in words)” value in test [2] is given as “reduced tumor burdens to background levels in the majority of animals”. In addition, in test [3], the “surface BCMA after overnight incubation (in words)” value was “increased levels of surface BCMA”.
As for “REGN5459: anti-BCMA×anti-CD3 bispecific antibody: BCMA HCVR of mAb21581 (SEQ 66), CD3 HCVR of mAb7221G20 (SEQ 98), common LCVR SEQ 82”, in test [1], the “S:N” value was 1. For the same substance, the “Radiance [p/s/cm2^2/sr] 5 days post-implantation (mean ± SEM)” value in test [2] (0.4 mg/kg group, 5 days post-implantation (before first dose on day 21)) was 5.09E+05 ± 3.56E+04 p/s/cm2^2/sr. Moreover, the “Radiance [p/s/cm2^2/sr] 11 days post-implantation (mean ± SEM)” value in test [2] (0.4 mg/kg group, 11 days post-implantation (before first dose on day 21)) was found to be 6.45E+05 ± 2.39E+04 p/s/cm2^2/sr. Besides, the “Radiance [p/s/cm2^2/sr] 20 days post-implantation (mean ± SEM)” value in test [2] (0.4 mg/kg group, 20 days post-implantation (before first dose on day 21)) is given as 2.13E+06 ± 1.69E+05 p/s/cm2^2/sr. In addition, the “tumor burden (in words)” value in test [2] is recorded as “reduced tumor burdens to background levels in the majority of animals”. Further, in test [2] (0.4 mg/kg, 26 days post-implantation), the “Radiance [p/s/cm2^2/sr] 26 days post-implantation (mean ± SEM)” value turned out to be 1.28E+06 ± 7.36E+05 p/s/cm2^2/sr. The “Radiance [p/s/cm2^2/sr] 31 days post-implantation (mean ± SEM)” value in test [2] (0.4 mg/kg, 31 days post-implantation) was 1.98E+06 ± 1.36E+06 p/s/cm2^2/sr. Further, the “Radiance [p/s/cm2^2/sr] 34 days post-implantation (mean ± SEM)” value in test [2] (0.4 mg/kg, 34 days post-implantation) was found to be 4.24E+06 ± 3.69E+06 p/s/cm2^2/sr. The “Radiance [p/s/cm2^2/sr] 38 days post-implantation (mean ± SEM)” value in test [2] (0.4 mg/kg, 38 days post-implantation) amounted to 3.21E+06 ± 2.52E+06 p/s/cm2^2/sr. Besides, the “Radiance [p/s/cm2^2/sr] 40 days post-implantation (mean ± SEM)” value in test [2] (0.4 mg/kg, 40 days post-implantation) was 3.84E+06 ± 3.34E+06 p/s/cm2^2/sr. Moreover, the “Radiance [p/s/cm2^2/sr] 47 days post-implantation (mean ± SEM)” value in test [2] (0.4 mg/kg, 47 days post-implantation) is on record as 7.34E+05 ± 2.62E+04 p/s/cm2^2/sr. Also, the “Radiance [p/s/cm2^2/sr] 54 days post-implantation (mean ± SEM)” value in test [2] (0.4 mg/kg, 54 days post-implantation) is given as 6.41E+05 ± 5.96E+04 p/s/cm2^2/sr. Further, the “Radiance [p/s/cm2^2/sr] 61 days post-implantation (mean ± SEM)” value in test [2] (0.4 mg/kg, 61 days post-implantation) stood at 6.03E+05 ± 5.29E+04 p/s/cm2^2/sr.

The record behind these values is patent US20260008862A1, “Bispecific Anti-BCMA x Anti-CD3 Antibodies and Uses Thereof” (Regeneron Pharmaceuticals, Inc., priority 2018, published 2026).
